# Test system: node-positive breast cancers
# Test: GEICAM/9906 randomized phase III adjuvant trial, FEC versus FEC-P: overall and disease-free survival, by PAM50 proliferation score
# Format: in vivo, human
# Settings: FEC-P vs. FEC; lowest quartile of 11-gene proliferation score
# Protocol: The primary endpoint of the […]/9906 clinical trial was disease-free survival. Secondary endpoints were: (a) overall survival; (b) prognostic and predictive value of molecular/genomic markers and (c) safety. The study was performed in accordance with the Declaration of Helsinki, approved by the ethics committees at all participating institutions and the Spanish Health Authority, and it was registered at www.clinicaltrials.gov (identifier code: NCT00129922). All patients provided written informed consent for therapy randomization and molecular analyses. […] Samples were gene expression profiled using the previously described RT-qPCR assay and analyzed using the clinical algorithm for subtype prediction (Parker et al., J Clin Oncol 27:1160-1167, 2009; Amp Laboratories: PAM50 Breast Cancer Intrinsic Classifier Information. at the World Wide Web (www) aruplab.com/Lab-Tests/General-Oncology/PAM50/index.jsp). […] In addition to the subtype classification, a PAM50proliferation score was calculated using the previously described 11-gene signature (BIRC5, CCNB1, CDC20, CDCA1, CEP55, KNTC2, MKI67, PTTG1, RRM2, TYMS, UBE2C) (Nielsen et al., Clin Cancer Res 16(21):5222-32, 2010). The significance of proliferation was evaluated using a classification into quartiles, and using the proliferation scores as a continuous variable. […]
structure (smiles),measurement,value
CC(=O)O[C@H]1C(=O)[C@@]2(C)[C@H]([C@H](OC(=O)c3ccccc3)[C@]3(O)C[C@H](OC(=O)[C@H](O)[C@@H](NC(=O)c4ccccc4)c4ccccc4)C(C)=C1C3(C)C)[C@]1(OC(C)=O)CO[C@@H]1C[C@@H]2O [paclitaxel],"HR for OS, low proliferation score",0.232

# Reference: patent US9181588B2, “Methods of treating breast cancer with taxane therapy” (The University of Utah Research Foundation, priority 2011, dated 2015)
